From a compilation of properties of binary mixtures (doi:10.1039/c6ra15476j)

Assay: xn = mol fraction of the nth substance listed
Details: 100 kPa

CC(=O)c1ccccc1 + CCOS(=O)(=O)[O-].CC[n+]1ccn(C)c1
Details | speed of sound, 293.15 K [m/s] | speed of sound, 303.15 K [m/s] | speed of sound, 313.15 K [m/s] | speed of sound, 323.15 K [m/s] | speed of sound, 333.15 K [m/s] | viscosity, 293.15 K [mPa·s] | viscosity, 303.15 K [mPa·s] | viscosity, 313.15 K [mPa·s] | viscosity, 323.15 K [mPa·s] | viscosity, 333.15 K [mPa·s]
x1 = 0.0505 | 1691 | 1663 | 1637 | 1611 | – | 68 | 44 | 29 | 20.6 | –
x1 = 0.0997 | 1684 | 1656 | 1628 | 1601 | – | 56 | 35 | 23.9 | 17.1 | –
x1 = 0.2 | 1669 | – | 1610 | 1581 | 1521 | 40 | – | 18 | 13.1 | 11.9
x1 = 0.3008 | 1652 | 1621 | 1591 | – | 1503 | 30.2 | 21.3 | 14.5 | – | 9.6
x1 = 0.4002 | 1634 | – | 1571 | 1540 | 1485 | 22.6 | – | 11.9 | 9.3 | 8.3
x1 = 0.5006 | 1615 | 1583 | 1550 | 1518 | – | 14.9 | 11.8 | 9.8 | 8 | 6.8
x1 = 0.5999 | 1596 | 1562 | 1529 | – | 1448 | 10.1 | 8.4 | 7.2 | – | 4.9
x1 = 0.6921 | 1577 | 1542 | – | 1473 | 1428 | 6.9 | 6.6 | – | 3.4 | 3.6
x1 = 0.7973 | – | – | 1481 | 1446 | 1404 | – | – | 4.6 | 2.19 | 1.86
x1 = 0.8999 | 1526 | 1489 | – | – | 1379 | 3.7 | 2.88 | – | – | 1.66
x1 = 0.9502 | 1511 | – | – | 1402 | 1365 | 3.04 | – | – | 1.68 | 1.46
x1 = 1 | 1497 | – | – | – | 1352 | 1.91 | – | – | – | 1.02

CC[n+]1ccn(C)c1.F[B-](F)(F)F + CC(=O)c1ccccc1
x2 = 0
Details | speed of sound [m/s] | viscosity [mPa·s]
303.15 K | 1618 | 28.2
313.15 K | 1595 | 20
323.15 K | 1572 | 14.9
333.15 K | 1550 | 11.5
